From patent US9938273B2 (Plexxikon Inc., priority 2015, dated 2018) come the findings set out here.

The assay concerns the target T1, FLT3-D835Y (Homo sapiens, UniProt P36888, D835Y).
T1 construct: purchased Invitrogen PV3967
T1 sequence (P36888 27-993 D835Y): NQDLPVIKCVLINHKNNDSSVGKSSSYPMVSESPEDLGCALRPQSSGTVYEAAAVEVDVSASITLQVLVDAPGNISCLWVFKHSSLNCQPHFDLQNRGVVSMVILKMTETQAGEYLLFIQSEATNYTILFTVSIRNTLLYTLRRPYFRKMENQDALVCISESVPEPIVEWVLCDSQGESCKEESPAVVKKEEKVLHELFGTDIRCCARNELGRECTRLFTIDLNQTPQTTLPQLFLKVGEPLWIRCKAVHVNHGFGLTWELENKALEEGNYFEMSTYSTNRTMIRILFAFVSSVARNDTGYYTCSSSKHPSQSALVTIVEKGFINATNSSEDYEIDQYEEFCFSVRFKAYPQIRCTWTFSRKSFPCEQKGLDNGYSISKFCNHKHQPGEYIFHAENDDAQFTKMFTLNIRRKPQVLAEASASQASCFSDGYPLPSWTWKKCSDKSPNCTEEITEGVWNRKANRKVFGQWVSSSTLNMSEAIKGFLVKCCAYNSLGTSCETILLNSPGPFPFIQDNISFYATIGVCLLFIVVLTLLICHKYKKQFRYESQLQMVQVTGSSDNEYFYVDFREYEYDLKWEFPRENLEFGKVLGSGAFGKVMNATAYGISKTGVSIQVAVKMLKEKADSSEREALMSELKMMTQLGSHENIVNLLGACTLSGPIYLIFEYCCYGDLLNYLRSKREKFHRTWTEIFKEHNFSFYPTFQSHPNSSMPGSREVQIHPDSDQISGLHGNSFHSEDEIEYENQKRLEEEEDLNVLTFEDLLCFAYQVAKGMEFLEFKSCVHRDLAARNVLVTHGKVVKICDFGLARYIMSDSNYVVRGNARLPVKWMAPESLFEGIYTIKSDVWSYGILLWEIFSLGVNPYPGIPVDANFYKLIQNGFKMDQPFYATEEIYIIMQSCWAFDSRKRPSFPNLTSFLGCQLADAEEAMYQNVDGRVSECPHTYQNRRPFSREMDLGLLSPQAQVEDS
In words: AlphaScreen kinase assay with recombinant enzyme, FLT3-D835Y. It counts as biochemical. Conditions: 8pt, GMean. The essentials: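 Tyrosine phosphorylation of biotin-poly(Glu4-Tyr) substrate by recombinant enzyme is detected with PY20 acceptor and streptavidin donor beads after room-temperature incubations of 20 and 60 min. IC50 values were derived at a final 10 μM (FLT3-D835Y, FLT3-ITD) or 100 μM (c-KIT).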
On the technique in general: Alpha assays give light when donor and acceptor beads are brought close together.

Turning to `O=C(c1cccc(-c2cnc3[nH]c(-c4ccccc4)cc3c2)n1)N1CCCC(O)C1` (stereo not shown) [Compound P-0069, (3-hydroxy-1-piperidyl)-[6-(2-phenyl-1H-pyrrolo[2,3-b]pyridin-5-yl)-2-pyridyl]methanone], the IC50 was in the range of 0.0001 to 10 µM.
The result for `NC1CCN(C(=O)c2n[nH]c3ccc(-c4cnc5[nH]c(C6=CCN(C(=O)C7CC7)C6)cc5c4)cc23)CC1` [Compound P-0074, (4-amino-1-piperidyl)-[5-[2-[1-(cyclopropanecarbonyl)-2,5-dihydropyrrol-3-yl]-1H-pyrrolo[2,3-b]pyridin-5-yl]-1H-indazol-3-yl]methanone] reads 0.0001 to 10 µM; that for `CN(C(=O)c1cccc(-c2cnc3[nH]c(-c4ccccc4)cc3c2)n1)C1CCNC1` (stereo not shown) [Compound P-0076, N-methyl-6-(2-phenyl-1H-pyrrolo[2,3-b]pyridin-5-yl)-N-pyrrolidin-3-yl-pyridine-2-carboxamide], 0.0001 to 10 µM; that for `CNC1CCCN(C(=O)c2cccc(-c3cnc4[nH]c(-c5ccccc5)cc4c3)n2)C1` (stereo not shown) [Compound P-0080, [3-(methylamino)-1-piperidyl]-[6-(2-phenyl-1H-pyrrolo[2,3-b]pyridin-5-yl)-2-pyridyl]methanone], 0.0001 to 10 µM.
With `CC1(N)CCN(C(=O)c2cccc(-c3cnc4[nH]c(-c5ccccc5)cc4c3)n2)CC1` [Compound P-0081, (4-amino-4-methyl-1-piperidyl)-[6-(2-phenyl-1H-pyrrolo[2,3-b]pyridin-5-yl)-2-pyridyl]methanone] the figure was 0.0001 to 10 µM.
The result for `CC1(N)CCCN(C(=O)c2cccc(-c3cnc4[nH]c(-c5ccccc5)cc4c3)n2)C1` (stereo not shown) [Compound P-0082, (3-amino-3-methyl-1-piperidyl)-[6-(2-phenyl-1H-pyrrolo[2,3-b]pyridin-5-yl)-2-pyridyl]methanone] reads 0.0001 to 10 µM.
`N[C@@H]1CN(C(=O)c2cccc(-c3cnc4[nH]c(-c5ccccc5)cc4c3)n2)CC12CC2` [Compound P-0083, [(7S)-7-amino-5-azaspiro[2.4]heptan-5-yl]-[6-(2-phenyl-1H-pyrrolo[2,3-b]pyridin-5-yl)-2-pyridyl]methanone]: the IC50 lay within 0.0001 to 10 µM.
With `CNC1CCN(Cc2cccc(-c3cnc4[nH]c(-c5ccccc5)cc4c3)n2)C1` (stereo not shown) [Compound P-0087, N-methyl-1-[[6-(2-phenyl-1H-pyrrolo[2,3-b]pyridin-5-yl)-2-pyridyl]methyl]pyrrolidin-3-amine] the figure was 0.0001 to 10 µM.
On to `O=C(c1cccc(-c2cnc3[nH]c(-c4ccccc4)cc3c2)n1)N1CCC(F)(F)CC1` [Compound P-0089, (4,4-difluoro-1-piperidyl)-[6-(2-phenyl-1H-pyrrolo[2,3-b]pyridin-5-yl)-2-pyridyl]methanone], for which the IC50 was 50 to 100 µM.
For `COC(=O)C1(C)CCN(C(=O)c2cccc(-c3cnc4[nH]c(-c5ccccc5)cc4c3)n2)CC1` [Compound P-0092, methyl 4-methyl-1-[6-(2-phenyl-1H-pyrrolo[2,3-b]pyridin-5-yl)pyridine-2-carbonyl]piperidine-4-carboxylate], the IC50 lay in the range of 0.0001 to 10 µM.

For orientation: IC50 means the concentration that inhibits the measured activity by half.
